The record followed here is patent publication US20230312556A1, “ARYLAMIDE COMPOUND, PHARMACEUTICAL COMPOSITION COMPRISING SAME, AND PREPARATION METHOD THEREFOR AND USE THEREOF” (SICHUAN KELUN-BIOTECH BIOPHARMACEUTICAL CO., LTD., priority 2020, published 2023).

mutant BRAF enzyme (BRAF-V600E), sequence (P15056 whole entry V600E): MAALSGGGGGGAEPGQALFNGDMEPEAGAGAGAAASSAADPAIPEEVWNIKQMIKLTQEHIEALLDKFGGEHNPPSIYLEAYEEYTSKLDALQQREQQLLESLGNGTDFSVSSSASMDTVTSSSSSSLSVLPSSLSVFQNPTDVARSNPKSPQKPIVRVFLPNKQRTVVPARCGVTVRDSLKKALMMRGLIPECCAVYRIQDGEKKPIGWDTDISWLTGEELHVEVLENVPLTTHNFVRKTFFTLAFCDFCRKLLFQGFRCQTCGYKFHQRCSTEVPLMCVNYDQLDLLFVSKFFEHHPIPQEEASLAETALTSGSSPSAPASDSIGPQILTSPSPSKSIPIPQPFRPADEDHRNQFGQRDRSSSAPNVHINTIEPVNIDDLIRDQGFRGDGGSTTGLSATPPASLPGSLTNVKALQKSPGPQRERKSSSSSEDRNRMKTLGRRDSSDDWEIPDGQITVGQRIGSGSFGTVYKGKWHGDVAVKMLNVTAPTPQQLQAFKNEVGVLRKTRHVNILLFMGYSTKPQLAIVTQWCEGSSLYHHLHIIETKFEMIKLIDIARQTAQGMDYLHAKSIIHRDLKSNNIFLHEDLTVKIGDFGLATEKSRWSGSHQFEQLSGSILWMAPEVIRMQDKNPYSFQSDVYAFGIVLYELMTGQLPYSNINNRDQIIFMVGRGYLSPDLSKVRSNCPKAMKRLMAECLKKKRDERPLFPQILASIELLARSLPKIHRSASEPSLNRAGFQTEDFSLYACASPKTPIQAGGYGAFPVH

The assay has as its target mutant BRAF enzyme (BRAF-V600E) (Homo sapiens (Human), UniProt P15056, V600E). The assay is described as follows: RAF inhibition assay (TB-PMAP2K1 kit), BRAF-V600E. Format: biochemical. The conditions noted are these: FLUORESCEIN-MAP2K1 substrate, 60 min reaction.
In the case of `Cc1ccc2c(C(O)c3cccc(Cl)c3)nccc2c1NC(=O)c1csc2c(N)ncnc12` (stereo not drawn) [Compound 17, 4-amino-N-(1-((3-chlorophenyl)(hydroxy)methyl)-6-methylisoquinolin-5-yl)thieno[3,2-d]pyrimidine-7-carboxamide], the midpoint of inhibition, the IC50, lay at 5.73 ± 1.05 nM.

Regarding `Cc1ccc2c(Cc3ccc(Cl)cc3)nccc2c1NC(=O)c1csc2c(N)ncnc12` [Compound 18, 4-amino-N-(1-(4-chlorobenzyl)-6-methylisoquinolin-5-yl)thieno[3,2-d]pyrimidine-7-carboxamide], it took 8.33 ± 1.25 nM to reach half-maximal inhibition (IC50).

`Cc1ccc2c(C(O)c3ccc(Cl)cc3)nccc2c1NC(=O)c1csc2c(N)ncnc12` (stereo not drawn) [Compound 20, 4-amino-N-(1-((4-chlorophenyl)(hydroxy)methyl)-6-methylisoquinolin-5-yl)thieno[3,2-d]pyrimidine-7-carboxamide] returned an IC50 of 10.7 ± 1.93 nM.

For the molecule `Cc1ccc2c(C(=O)c3ccc(Cl)cc3)nccc2c1NC(=O)c1csc2c(N)ncnc12` [Compound 21, 4-amino-N-(1-(4-chlorobenzoyl)-6-methylisoquinolin-5-yl)thieno[3,2-d]pyrimidine-7-carboxamide], half-maximal inhibition (IC50) required 5.99 ± 1.82 nM.

With `Cc1ccc2c(C(O)c3ccccc3Cl)nccc2c1NC(=O)c1cccc2c(N)ncnc12` (stereo not drawn) [Compound 24, 4-amino-N-(1-((2-chlorophenyl)(hydroxy)methyl)-6-methylisoquinolin-5-yl)quinazoline-8-carboxamide], half-maximal inhibition (IC50) was put at 7.1 ± 0.7 nM.

`Cc1ccc2c(Cc3ccccc3Cl)nccc2c1NC(=O)c1cccc2c(N)ncnc12` [Compound 25, 4-amino-N-(1-(2-chlorobenzyl)-6-methylisoquinolin-5-yl)quinazoline-8-carboxamide] registered a half-maximal inhibitory concentration (IC50) of 6.31 ± 0.99 nM.

The molecule `Cc1ccc2c(Cc3ccc(Cl)cc3F)nccc2c1NC(=O)c1csc2c(N)ncnc12` [Compound 26, 4-amino-N-(1-(4-chloro-2-fluorobenzyl)-6-methylisoquinolin-5-yl)thieno[3,2-d]pyrimidine-7-carboxamide] yielded a 50% inhibitory concentration (IC50) of 9 ± 0.77 nM.

As to `Cc1ccc2c(C(=O)c3ccc(Cl)cc3F)nccc2c1NC(=O)c1csc2c(N)ncnc12` [Compound 27, 4-amino-N-(1-(4-chloro-2-fluorobenzoyl)-6-methylisoquinolin-5-yl)thieno[3,2-d]pyrimidine-7-carboxamide], the midpoint of inhibition, the IC50, lay at 6.48 ± 0.93 nM.

As to `Cc1ccc2c(Nc3cccc(Cl)c3F)nccc2c1NC(=O)c1cnc2c(N)ncnn12` [Compound 30, 4-amino-N-(1-((3-chloro-2-fluorophenyl)amino)-6-methylisoquinolin-5-yl)imidazo[2,1-f][1,2,4]triazine-7-carboxamide], the 50% inhibitory concentration (IC50) amounted to 4.1 ± 0.2 nM.

Regarding `Cc1ccc2c(C(O)c3ccc(C(F)(F)F)cc3)nccc2c1NC(=O)c1csc2c(N)ncnc12` (stereo not drawn) [Compound 33, 4-amino-N-(1-(hydroxy(4-(trifluoromethyl)phenyl)methyl)-6-methylisoquinolin-5-yl)thieno[3,2-d]pyrimidine-7-carboxamide], it took 33.5 ± 6.13 nM to reach half-maximal inhibition (IC50).

`Cc1ccc2c(Cc3ccc(C(F)(F)F)cc3)nccc2c1NC(=O)c1csc2c(N)ncnc12` [Compound 34, 4-amino-N-(6-methyl-1-(4-(trifluoromethyl)benzyl)isoquinolin-5-yl)thieno[3,2-d]pyrimidine-7-carboxamide] returned an IC50 of 26.9 ± 2.58 nM.

`Cc1ccc2c(Cc3ccc(N(C)C)nc3)nccc2c1NC(=O)c1csc2c(N)ncnc12` [Compound 36, 4-amino-N-(1-((6-(dimethylamino)pyridin-3-yl)methyl)-6-methylisoquinolin-5-yl)thieno[3,2-d]pyrimidine-7-carboxamide] registered an IC50 of 22.5 ± 4.41 nM.

With `Cc1ccc2c(C(O)c3ccc(N(C)C)nc3)nccc2c1NC(=O)c1csc2c(N)ncnc12` (stereo not drawn) [Compound 37, 4-amino-N-(1-((6-(dimethylamino)pyridin-3-yl)(hydroxy)methyl)-6-methylisoquinolin-5-yl)thieno[3,2-d]pyrimidine-7-carboxamide], half-maximal inhibition (IC50) required 20.4 ± 3.03 nM.

`Cc1ccc2c(Nc3ccc(CN(C)C)cc3)nccc2c1NC(=O)c1cccc2c(N)ncnc12` [Compound 40, 4-amino-N-(1-((4-((dimethylamino)methyl)phenyl)amino)-6-methylisoquinolin-5-yl)quinazoline-8-carboxamide]: the concentration for half-maximal inhibition (IC50) came to 8.51 ± 1.02 nM.

`Cc1ccc2c(Cc3ccc(Cl)c(CN(C)C)c3)nccc2c1NC(=O)c1csc2c(N)ncnc12` [Compound 42, 4-amino-N-(1-(4-chloro-3-((dimethylamino)methyl)benzyl)-6-methylisoquinolin-5-yl)thieno[3,2-d]pyrimidine-7-carboxamide] had a half-inhibitory concentration (IC50) of 35.8 ± 9.02 nM.

The molecule `Cc1ccc2c(Nc3ccccc3F)nccc2c1NC(=O)c1cnc2c(N)ncnn12` [Compound 44, 4-amino-N-(1-((2-fluorophenyl)amino)-6-methylisoquinolin-5-yl)imidazo[2,1-f][1,2,4]triazine-7-carboxamide] showed a half-inhibitory concentration (IC50) of 0.88 ± 0.15 nM.

In the case of `Cc1cc(C(=O)Nc2c(C)ccc3c(Nc4cccc(Cl)c4F)nccc23)c2ncnc(N)c2c1` [Compound 45, 4-amino-N-(1-((3-chloro-2-fluorophenyl)amino)-6-methylisoquinolin-5-yl)-6-methylquinazoline-8-carboxamide], the IC50 stood at 18.2 ± 7.52 nM.

The molecule `Cc1ccc2c(Nc3cccc(Cl)c3F)nccc2c1NC(=O)c1cc(N2CCOCC2)cc2c(N)ncnc12` [Compound 53, 4-amino-N-(1-((3-chloro-2-fluorophenyl)amino)-6-methylisoquinolin-5-yl)-6-morpholinoquinazoline-8-carboxamide] yielded a 50% inhibitory concentration (IC50) of 17.3 ± 3.43 nM.

With `Cc1ccc2c(Nc3cccc(Cl)c3F)nccc2c1NC(=O)c1cc(N2CCN(C)CC2)cc2c(N)ncnc12` [Compound 54, 4-amino-N-(1-((3-chloro-2-fluorophenyl)amino)-6-methylisoquinolin-5-yl)-6-(4-methylpiperazin-1-yl)quinazoline-8-carboxamide], the IC50 was determined as 11 ± 2.02 nM.

The molecule `Cc1ccc2c(Nc3ccc(Cl)cc3F)nccc2c1NC(=O)c1cnc2c(N)ncnn12` [Compound 55, 4-amino-N-(1-((4-chloro-2-fluorophenyl)amino)-6-methylisoquinolin-5-yl)imidazo[2,1-f][1,2,4]triazine-7-carboxamide] displayed an IC50 of 2.86 ± 0.24 nM.

The molecule `COc1ccc(Nc2nccc3c(NC(=O)c4cnc5c(N)ncnn45)c(C)ccc23)cc1Cl` [Compound 56, 4-amino-N-(1-((3-chloro-4-methoxyphenyl)amino)-6-methylisoquinolin-5-yl)imidazo[2,1-f][1,2,4]triazine-7-carboxamide] showed a concentration for half-maximal inhibition (IC50) of 3.16 ± 0.67 nM.

On to `COc1ccc(Nc2nccc3c(NC(=O)c4cccc5c(N)ncnc45)c(C)ccc23)cc1` [Compound 57, 4-amino-N-(1-((4-methoxyphenyl)amino)-6-methylisoquinolin-5-yl)quinazoline-8-carboxamide], for which the half-inhibitory concentration (IC50) came to 2.89 ± 0.34 nM.

Take `Cc1ccc2c(Nc3ccc(N(C)C)nc3)nccc2c1NC(=O)c1cccc2c(N)ncnc12` [Compound 59, 4-amino-N-(1-((6-(dimethylamino)pyridin-3-yl)amino)-6-methylisoquinolin-5-yl)quinazoline-8-carboxamide]: the 50% inhibitory concentration (IC50) came to 13 ± 1.35 nM.

On to `COc1ccc(Nc2nccc3c(NC(=O)c4cnc5c(N)ncnn45)c(C)ccc23)c(F)c1` [Compound 61, 4-amino-N-(1-((2-fluoro-4-methoxyphenyl)amino)-6-methylisoquinolin-5-yl)imidazo[2,1-f][1,2,4]triazine-7-carboxamide], for which the half-inhibitory concentration (IC50) was determined as 2.88 ± 0.74 nM.
